*1 amine or outer side, *2 acyl side, *3 side chain or, on linkers, in order; H or OH if unused. Where a SMILES comes first, the peptide text is derived from it. Bridges are numbered along the chain shown (N, C = ends). [ ]: non-standard residue; d: D form. The star is where a group is joined. ξ: configuration not given here. Phe(3-CF3) = N[C@@H](Cc1cccc(C(F)(F)F)c1)C(=O)O; Phe(4-COOH) = N[C@@H](Cc1ccc(C(=O)O)cc1)C(=O)O; Phe(4-CH2NH2) = NCc1ccc(C[C@H](N)C(=O)O)cc1; Bip = N[C@@H](Cc1ccc(-c2ccccc2)cc1)C(=O)O; Phe(4-CN) = N#Cc1ccc(C[C@H](N)C(=O)O)cc1; Phe(3-Me) = Cc1cccc(C[C@H](N)C(=O)O)c1; NH(CH2)8CO = O=C(CCCCCCCCN[*:1])[*:2]; NH(CH2)12COOH = O=C(O)CCCCCCCCCCCCN*; NMeAEEA = CN(CCOCCOCC(=O)[*:2])[*:1]; Val(3-OH) = CC(C)(O)[C@H](N)C(=O)O; dIle(3ξ) = CCC(C)[C@@H](N)C(=O)O; Cha = N[C@@H](CC1CCCCC1)C(=O)O; Cit = NC(=O)NCCC[C@H](N)C(=O)O; Thr(3ξ) = CC(O)[C@H](N)C(=O)O; hSer = N[C@@H](CCO)C(=O)O; Carboxymethyl = O=C(O)C*; NMeA = CN[C@@H](C)C(=O)O; Orn = NCCC[C@H](N)C(=O)O; dNMeA = CN[C@H](C)C(=O)O; Aun = NCCCCCCCCCCC(=O)O; Dab = NCC[C@H](N)C(=O)O; AEEA = NCCOCCOCC(=O)O

T1 sequence (Q15116 25-288): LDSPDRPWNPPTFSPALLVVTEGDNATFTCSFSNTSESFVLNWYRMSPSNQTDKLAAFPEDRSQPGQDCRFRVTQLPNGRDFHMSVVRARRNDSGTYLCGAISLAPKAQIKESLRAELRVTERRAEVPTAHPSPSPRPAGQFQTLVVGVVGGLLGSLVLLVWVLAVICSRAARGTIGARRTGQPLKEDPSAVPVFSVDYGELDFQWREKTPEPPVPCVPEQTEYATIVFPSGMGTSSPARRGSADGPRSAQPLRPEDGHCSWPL

The first test concerns the target T1, PD-1/PD-L1 interaction (PE-labeled human PD-L1-Ig binding to Jurkat cell line over-expressing human PD-1) (Homo sapiens, UniProt Q15116).
T1 construct: expressed in transfected cells; host or cells: Jurkat
Briefly: Jurkat-PD-1 Cell Binding High-Content Screening Assay (CBA). Particulars: Jurkat-hPD-1 cells, PE-labeled PD-L1-Ig 20 nM final; read-out: Jurkat HPD1 PDL1 IC50. The procedure, abridged:
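Read-out: high-content imaging of cell-bound PE fluorescence, with Hoechst 33342 nuclear counterstain after paraformaldehyde fixation. Before labeled ligand (20 nM final, 1 h) was added, compound sat on the cells for 2 h at 37 °C in DMEM/10% FCS.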
Turning to `Cc1cccc(C[C@@H]2NC(=O)[C@H](CC(=O)O)NC(=O)[C@H](Cc3ccc(C(=O)O)cc3)NC(=O)[C@H](CCN)NC(=O)CSC[C@@H](C(=O)N[C@@H](CCN)C(=O)NCCCCCCCCCCC(=O)O)NC(=O)[C@H](CO)NC(=O)[C@H](C(C)(C)O)NC(=O)[C@H](CC3CCCCC3)NC(=O)[C@H](CCN)NC(=O)[C@@H](CC(C)C)NC(=O)[C@H](C)N(C)C(=O)[C@H](Cc3ccc(OCC(=O)O)cc3)NC(=O)[C@H](Cc3ccc(-c4ccccc4)cc3)NC(=O)[C@H](Cc3ccc(C#N)cc3)NC2=O)c1` [Example 1300] ({CH2CO}-[Dab][Phe(4-COOH)]D[Phe(3-Me)][Phe(4-CN)][Bip]Y(Carboxymethyl)[NMeA][dL][Dab][Cha][Val(3-OH)]SC[Dab][Aun]-OH; thioether N-14), the IC50 was found to be 0.0215 µM.

For `Cc1cccc(C[C@@H]2NC(=O)[C@H](CC(=O)O)NC(=O)[C@H](Cc3ccc(C(=O)O)cc3)NC(=O)[C@H]([C@@H](C)O)NC(=O)CSC[C@@H](C(=O)N[C@@H](CCN)C(=O)NCCOCCOCC(=O)NCCOCCOCC(=O)NCCCCCCCCCCCCC(=O)O)NC(=O)[C@H](CCC(=O)O)NC(=O)[C@H](C(C)(C)O)NC(=O)[C@H](CC3CCCCC3)NC(=O)[C@H](CCN)NC(=O)[C@@H](CC(C)C)NC(=O)[C@H](C)N(C)C(=O)[C@H](Cc3ccc(C(=O)O)cc3)NC(=O)[C@H](Cc3ccc(-c4ccccc4)cc3)NC(=O)[C@H](Cc3ccc(C(=O)O)cc3)NC2=O)c1` [Example 1430] ({CH2CO}-T[Phe(4-COOH)]D[Phe(3-Me)][Phe(4-COOH)][Bip][Phe(4-COOH)][NMeA][dL][Dab][Cha][Val(3-OH)]EC[Dab][AEEA][AEEA]-{NH(CH2)12COOH}; thioether N-14), the IC50 came to 0.0427 µM.

For the compound `CC(C)C[C@H]1NC(=O)[C@H](C)N(C)C(=O)[C@H](CCCNC(N)=O)NC(=O)[C@H](Cc2ccc(-c3ccccc3)cc2)NC(=O)[C@H](Cc2ccc(C(=O)O)cc2)NC(=O)[C@H](Cc2cccc(C(F)(F)F)c2)NC(=O)[C@H](CC(=O)O)NC(=O)[C@H](Cc2ccc(OCC(=O)O)cc2)NC(=O)[C@H](Cc2ccc(C(=O)O)cc2)NC(=O)CSC[C@@H](C(=O)N[C@@H](CCN)C(=O)NCCCCCCCCCCCCC(=O)O)NC(=O)[C@H](CO)NC(=O)[C@H](C(C)(C)O)NC(=O)[C@H](CC2CCCCC2)NC(=O)[C@H](CCN)NC1=O` [Example 1148] ({CH2CO}-[Phe(4-COOH)]Y(Carboxymethyl)D[Phe(3-CF3)][Phe(4-COOH)][Bip][Cit][NMeA][dL][Dab][Cha][Val(3-OH)]SC[Dab]-{NH(CH2)12COOH}; thioether N-14), the IC50 worked out at 0.0178 µM.

As for `CCC(C)[C@H]1NC(=O)[C@H](Cc2ccc(-c3ccccc3)cc2)NC(=O)[C@H](CC(C)C)NC(=O)[C@H](Cc2c[nH]c3ccccc23)NC(=O)[C@H](CC(=O)O)NC(=O)[C@H](Cc2ccc(C(=O)O)cc2)NC(=O)[C@H](Cc2ccc(OCC(=O)O)cc2)NC(=O)CSC[C@@H](C(=O)NCCCCCCCCCCC(=O)O)NC(=O)[C@H](CCCCN)NC(=O)[C@H](C(C)C)NC(=O)[C@H](CC2CCCCC2)NC(=O)[C@H](CCN)NC(=O)[C@@H](CC(C)C)NC(=O)[C@@H](C)N(C)C1=O` (stereo partly drawn) [Example 2236] ({CH2CO}-Y(Carboxymethyl)[Phe(4-COOH)]DWL[Bip][dIle(3ξ)][dNMeA][dL][Dab][Cha]VKC[Aun]-OH; thioether N-14), the IC50 amounted to 0.0131 µM.

For `CC(C)C[C@@H]1NC(=O)[C@H](Cc2c[nH]c3ccccc23)NC(=O)[C@H](CC(=O)O)NC(=O)[C@H](Cc2ccccc2)NC(=O)[C@H](Cc2ccc(OCC(=O)O)cc2)NC(=O)CSC[C@@H](C(=O)N[C@@H](CCCCN)C(=O)NCCOCCOCC(=O)NCCCCCCCCCCC(=O)O)NC(=O)[C@H](CO)NC(=O)[C@H](C(C)C)NC(=O)[C@H](CC2CCCCC2)NC(=O)[C@H](CCN)NC(=O)[C@@H](CC(C)C)NC(=O)[C@H](C)N(C)C(=O)[C@H](C(C)C)NC(=O)[C@H](Cc2ccc(-c3ccccc3)cc2)NC1=O` [Example 2098] ({CH2CO}-Y(Carboxymethyl)FDWL[Bip]V[NMeA][dL][Dab][Cha]VSCK[AEEA][Aun]-OH; thioether N-14), the IC50 worked out at 0.024 µM.

As for `Cc1cccc(C[C@@H]2NC(=O)[C@H](CC(=O)O)NC(=O)[C@H](Cc3ccc(OCC(=O)O)cc3)NC(=O)[C@H](C(C)O)NC(=O)CSC[C@@H](C(=O)N(C)CCOCCOCC(=O)NCCCCCCCCCCC(=O)O)NC(=O)[C@H](CCO)NC(=O)[C@H](C(C)C)NC(=O)[C@H](CC3CCCCC3)NC(=O)[C@H](CCN)NC(=O)[C@@H](CC(C)C)NC(=O)[C@H](C)N(C)C(=O)[C@H](C(C)C)NC(=O)[C@H](Cc3ccc(-c4ccccc4)cc3)NC(=O)[C@H](C(C)C)NC2=O)c1` (stereo partly drawn) [Example 2364] ({CH2CO}-[Thr(3ξ)]Y(Carboxymethyl)D[Phe(3-Me)]V[Bip]V[NMeA][dL][Dab][Cha]V[hSer]C[NMeAEEA][Aun]-OH; thioether N-14), the IC50 came out at 0.0363 µM.

For `Cc1cccc(C[C@@H]2NC(=O)[C@H](CC(=O)O)NC(=O)[C@H](Cc3ccc(OCC(=O)O)cc3)NC(=O)[C@H]([C@@H](C)O)NC(=O)CSC[C@@H](C(=O)N[C@@H](CCN)C(=O)NCCCCCCCCCCC(=O)O)NC(=O)[C@H](CCC(=O)O)NC(=O)[C@H](C(C)(C)O)NC(=O)[C@H](CC3CCCCC3)NC(=O)[C@H](CCN)NC(=O)[C@@H](CC(C)C)NC(=O)[C@H](C)N(C)C(=O)[C@H](Cc3ccc(OCC(=O)O)cc3)NC(=O)[C@H](Cc3ccc(-c4ccccc4)cc3)NC(=O)[C@H](Cc3ccc(OCC(=O)O)cc3)NC2=O)c1` [Example 1418] ({CH2CO}-TY(Carboxymethyl)D[Phe(3-Me)]Y(Carboxymethyl)[Bip]Y(Carboxymethyl)[NMeA][dL][Dab][Cha][Val(3-OH)]EC[Dab][Aun]-OH; thioether N-14), the IC50 was 0.0371 µM.

Staying with this test, now noted: PE-labeled PD-L1-Ig 20 nM final, Jurkat-hPD-1 cells; read-out: Jurkat HPD1 PDL1 IC50.
`Cc1cccc(C[C@@H]2NC(=O)[C@H](CC(=O)O)NC(=O)[C@H](Cc3ccc(C(=O)O)cc3)NC(=O)[C@H](CCN)NC(=O)CSC[C@@H](C(=O)N[C@@H](CCN)C(=O)NCCOCCOCC(=O)NCCOCCOCC(=O)NCCCCCCCCCCC(=O)O)NC(=O)[C@H](CCC(=O)O)NC(=O)[C@H](C(C)(C)O)NC(=O)[C@H](CC3CCCCC3)NC(=O)[C@H](CCN)NC(=O)[C@@H](CC(C)C)NC(=O)[C@H](C)N(C)C(=O)[C@H](Cc3ccc(C(=O)O)cc3)NC(=O)[C@H](Cc3ccc(-c4ccccc4)cc3)NC(=O)[C@H](Cc3ccc(C(=O)O)cc3)NC2=O)c1` [Example 2519] ({CH2CO}-[Dab][Phe(4-COOH)]D[Phe(3-Me)][Phe(4-COOH)][Bip][Phe(4-COOH)][NMeA][dL][Dab][Cha][Val(3-OH)]EC[Dab][AEEA][AEEA][Aun]-OH; thioether N-14): the 50% inhibitory concentration (IC50) was determined as 0.0131 µM.

Take `Cc1cccc(C[C@@H]2NC(=O)[C@H](CC(=O)O)NC(=O)[C@H](Cc3ccc(CN)cc3)NC(=O)[C@H]([C@@H](C)O)NC(=O)CSC[C@@H](C(=O)N[C@@H](CCN)C(=O)NCCCCCCCCC(=O)NCCCCCCCCCCC(=O)O)NC(=O)[C@H](CCCN)NC(=O)[C@H](C(C)C)NC(=O)[C@H](CC3CCCCC3)NC(=O)[C@H](CCN)NC(=O)[C@@H](CC(C)C)NC(=O)[C@H](C)N(C)C(=O)[C@H](Cc3ccc(CN)cc3)NC(=O)[C@H](Cc3ccc(-c4ccccc4)cc3)NC(=O)[C@H](Cc3ccc(CN)cc3)NC2=O)c1` [Example 2671] ({CH2CO}-T[Phe(4-CH2NH2)]D[Phe(3-Me)][Phe(4-CH2NH2)][Bip][Phe(4-CH2NH2)][NMeA][dL][Dab][Cha]V[Orn]C[Dab][NH(CH2)8CO][Aun]-OH; thioether N-14): the IC50 was 0.0301 µM.

The record behind these values is US20260070945A1, “MACROCYCLIC IMMUNOMODULATORS” (Bristol-Myers Squibb Company, priority 2022, published 2026).
